We go through four molecules from US20160011177A1, “SCREENING METHOD FOR THERAPEUTIC AGENTS FOR CHARCOT-MARIE-TOOTH DISEASE AND SELF-DIFFERENTIATION MOTOR NEURONS USED THEREFOR” (Samsung Life Public Welfare Foundation, priority 2013, published 2016).

One data set deals with CMT1A transgenic mouse. The note with it: cited from earlier work.
A further data set deals with Pmp22 mRNA. Particulars: transgenic mouse; cited from earlier work.
The test system of another data set is CMT 2F-MN. Nature of the data set: α-tubulin acetylation in motor neurons (immunostaining, Western blotting). In kind it is cell-based, human. The note with it: 5 μM tubastatin A, 12 hours, versus non-treated and normal control WA09_MN. The source says:
To use the neurons differentiated from CMT patient originated iPSCs as the CMT drug efficiency test model, the recovery of axonal transport according to the treatment of tubastatin A, the histon deacetylase 6 (HDAC6) inhibitor, was investigated. CM2 subtype has heterogeneity in CMT causing gene, but nevertheless it causes malfunction in axonal transport system in many patients (Gentil B J and Cooper L, Brain Res Bull 2012; 88: 444-453). Therefore, the axonal transport efficiency of CMT 2F-MN was investigated by measuring the level of α-tubulin acetylation which was reported previously to be associated with the interaction between the vehicle and the motor protein (Westermann S and Weber K. Nat Rev Mol Cell Biol 2003; 4: 938-947).
Particularly, the CMT-2F-MN or WA09_MN differentiated by the same manner as described in Example <3-1> was treated with 5 μM tubastatin A, followed by culture for 12 hours. Then, the cells were immunostained with α-tubulin and acetylated α-tubulin by the same manner as described in Example <2-3>. […]
The CMT-2F-MN or WA09_MN treated with 5 μM tubastatin A was suspended in RIPA lysis buffer (pH 8.0) containing 150 mM NaCl, 1.0% NP-40, 0.5% sodium deoxycholate, 0.1% sodium dodecylsulfate, and 50 mM Tris. […] The band density was analyzed by using UN-SCAN-IT gel software in order to (Silk Scientific, USA) measure the level of α-tubulin acetylation. […]

The next data set concerns HSP27 P182L-MN. As to the kind of experiment: Moving mitochondria in motor neuron axons, microfluidic culture. In kind it is cell-based, human. The source says: (§1) To use the neurons differentiated from CMT patient originated iPSCs as the CMT drug efficiency test model, moving mitochondria was investigated over the treatment of tubastatin A, the histon deacetylase 6 (HDAC6) inhibitor, through microfluidic culture, as shown in FIG. 13. And the axonal transport efficiency of motor neurons (CMT 2F-MN) was confirmed (FIG. 13).
(§2) Particularly, the CMT-2F-MN or WA09_MN obtained in Example <3-1> was separated as single cells by using accutase, which were then inoculated in microchannel plates (provided by Dr. Mok, Seoul National University, Korea; Park J W et al., Nat Protoc 2006; 1: 2128-2136) at the density of 1.0×10^5 cells/plate, followed by culture in neurobasal/B27 for 10 days. After axons were fully grown through micrometer-sized grooves and stretched to the opposite compartment, the processed motor neurons were transfected with mito-dsRED2 by using lipofectamine 2000 (Invitrogen, USA). Within 2 days from the transfection, 5˜10 μM tubastatin A was treated to the medium, followed by culture for 6 hours. Imaging of mitochondria was performed by using fluorescent microscope at the speed of 121 snaps/2 min. Moving velocity of the motor neuron was measured by using ImageJ and Kymograph.

In a further data set the test system is HSP27 S135F-MN. The data set is described as above. In kind it is cell-based, human.
Text: as §1, §2

The test system of the next data set is WA09_hESC-MN. The data set is described as above. In kind it is cell-based, human. Particulars: 6 hours.
Text: as §1, §2

In another data set the test system is myelinated nerve fibers. Particulars: cited from earlier work.
The mark [1] stands for this setting: CMT 2F-MN with P182L mutation, tubastatin A treated versus non-treated.
Setting [2] is: CMT 2F-MN with S135F mutation, tubastatin A treated versus non-treated.

Entries after “also recorded” stand apart in the source; their conditions may differ.

Regarding `O=C1O[C@H]([C@@H](O)CO)C(O)=C1O` [Ascorbic acid], in the data set on CMT1A transgenic mouse, the “phenotype of hereditary motor and sensory neuropathies” value is listed as “improved”.

As to `CN(C)c1ccc([C@H]2C[C@]3(C)[C@@H](CC[C@]3(O)CCCO)[C@@H]3CCC4=CC(=O)CCC4=C32)cc1` [onapristone], in the data set with Pmp22 mRNA, the “over-expression of Pmp22 mRNA” value is reported as “suppressed”; the “phenotype of hereditary motor and sensory neuropathies” value is recorded as “improved”; the side effects result is “without side effects”.

With `CN1CCc2c(c3ccccc3n2Cc2ccc(C(=O)NO)cc2)C1` [tubastatin A], in the data set on CMT 2F-MN, the “level of α-tubulin acetylation” value was “increased/recovered back to that of the normal control group; also recorded: significantly increased”. Moreover, the “moving velocity of mitochondria, in words” value in the data set on HSP27 P182L-MN (setting [1]) and in the data set with HSP27 S135F-MN (setting [2]) was “significantly increased” each time. Also, the “transport frequency of mitochondria, in words” value with HSP27 P182L-MN (setting [1]) and with HSP27 S135F-MN (setting [2]) was “significantly increased” each time. Also, the “Moving velocity of mitochondria” value in the data set with HSP27 P182L-MN (HSP27 P182L-MN, 5 μM tubastatin A treated, 6 hours) was determined as 0.2599 ± 0.05186 μm/sec; with HSP27 S135F-MN (HSP27 S135F-MN, 5 μM tubastatin A treated, 6 hours), 0.2498 ± 0.02357 μm/sec; in the data set on WA09_hESC-MN (5 μM tubastatin A treated), 0.2446 ± 0.03859 μm/sec. The “Migration of mitochondria (number of moving mitochondria by total number)” value was 44.61 ± 10.450% in the data set with HSP27 P182L-MN (HSP27 P182L-MN, 10 μM tubastatin A treated, 6 hours) and 39.31 ± 3.831% with WA09_hESC-MN (10 μM tubastatin A treated).

B1: neurotrophin-3 (protein, UniProt P20783 139-257, looked up)
Neurotrophin-3: YAEHKSHRGEYSVCDSESLWVTDKSSAIDIRGHQVTVLGEIKTGNSPVKQYFYETRCKEARPVKNGCRGIDDKHWNSQCKTSQTYVRALTSENNKLVGWRWIRIDTSCVCALSRKIGRT
notes: neurotrophin reported to increase myelinated nerve fibers
As for B1, in the data set on myelinated nerve fibers, the myelinated nerve fibers result is “increased” and the sensor related symptoms entry is “improved”.
